Assay results as given in patent US9868715B2 (THE BOARD OF REGENTS OF THE UNIVERSITY OF TEXAS SYSTEMS, priority 2014, dated 2018).

Assays:
[1] = biological target: T1, human CBS (cystathionine-β-synthase) (Homo sapiens, UniProt P35520); assay: H2S production by recombinant CBS; assay type: biochemical; conditions: 100 μM compound; H2S production as % of control (100%)
T1 construct: GST (N); made in house; host or cells: E. coli BL21(DE3) Codon Plus
T1 sequence (P35520 1-551): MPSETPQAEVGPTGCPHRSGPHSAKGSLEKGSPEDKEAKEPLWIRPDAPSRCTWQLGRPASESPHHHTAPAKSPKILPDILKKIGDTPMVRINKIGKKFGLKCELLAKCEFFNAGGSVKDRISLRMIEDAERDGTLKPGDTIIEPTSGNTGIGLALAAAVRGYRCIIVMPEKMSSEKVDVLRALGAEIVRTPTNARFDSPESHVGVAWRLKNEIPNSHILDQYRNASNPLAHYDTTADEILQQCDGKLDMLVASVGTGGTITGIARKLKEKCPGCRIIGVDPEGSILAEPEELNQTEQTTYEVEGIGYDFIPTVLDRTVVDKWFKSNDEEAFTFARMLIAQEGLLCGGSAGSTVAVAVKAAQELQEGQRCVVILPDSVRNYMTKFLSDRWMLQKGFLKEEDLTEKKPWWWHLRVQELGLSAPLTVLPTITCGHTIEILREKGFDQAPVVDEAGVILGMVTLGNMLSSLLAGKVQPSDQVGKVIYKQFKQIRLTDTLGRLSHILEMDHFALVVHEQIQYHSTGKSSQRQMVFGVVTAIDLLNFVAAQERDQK
Protocol: Recombinant human CBS protein expression and purification. The expression and purification of human CBS was performed as described previously (Asimakopoulou et al. 2013, Br J Pharmacol. 169(4):922-32). Briefly, E. Coli BL21(DE3) Codon Plus cells (Stratagene, La Jolla, Calif., USA) containing the expression vector pGEX-Kg/GST-CBS were grown at 37° C. and 180 rpm in LuriaBertani (LB) broth medium containing 100 μg/ml ampicillin to an absorption of 0.6-0.8 at 600 nm. Protein expression was induced by addition of 0.1 mM IPTG (isopropyl-b-D-thiogalactopyranoside) and cells were further incubated at 30° C. overnight. The bacteria were harvested and sonicated in lysis buffer PBS (140 mM NaCl, 2.7 mM KCl, 10 mM Na2HPO4, 1.8 mM KH2PO4, pH 7.8) containing a protease inhibitors cocktail (Sigma). The protein lysate was loaded onto a GSTrap FF 1 ml affinity column (Amersham Biosciences) and the GST-CBS recombinant protein was eluted with the elution buffer (50 mM Tris-HCl, 10 mM reduced glutathione, pH 8.0) and then dialyzed and concentrated in 10 mM sodium phosphate buffer (pH 8.2) and DTT (1 mM).
Measurement of H2S production by recombinant CBS. The measurement of H2S production by recombinant CBS enzyme was performed as described (Asimakopoulou et al. 2013, Br J Pharmacol. 169(4):922-32). Briefly, each test consisted of a 100 μl reaction mixture in 50 mM sodium phosphate buffer pH 8.2 containing 1 μg of the purified human CBS enzyme, 0.01 mM pyridoxal-5′-phosphate (PLP), 10 mM L-cysteine and 0.5 mM homocysteine. […] The reaction was initiated by transferring the Eppendorf tubes from ice to a 37° C. shaking water bath. After 60 minutes of incubation at 37° C., the reaction was terminated by adding 1% ZnAc followed by 10% trichloroacetic acid. Subsequently, N,N-dimethylphenylendiamine sulfate (20 mM in 7.2 M HCl) and FeCl3 (30 mM in 1.2 M HCl) were added and the optical absorbance of the solutions was measured at 650 nm.

[2] = test system: transformed PSC (human pancreatic stellate cells); assay: PSC proliferation, AlamarBlue Cell Viability Assay; assay type: cell-based; conditions: for Inhibitory Effect (%) on PSC proliferation / inhibition at 10 µM: 10 μM; for Inhibitory Effect (%) on PSC proliferation / inhibition at 5 µM / inhibition at 10 µM / inhibition at 20 µM: mean of at least three independent experiments, NE = No effect; for inhibition at 5 µM / inhibition at 10 µM / inhibition at 20 µM: Homo sapiens, read-out: Inhibitory Effect (%) on PSC proliferation; for Antiproliferative effect on PSC, result in words: transformed PSC, AlamarBlue
Protocol: The calculated lipophilicity (cLogP) and topological polar surface area (tPSA) values of synthesized analogues are listed in Table 1. […] AlamarBlue is a non-toxic reagent that is converted to a highly fluorescent end product by viable cells.
Under an IRB-approved tissue protocol, discarded human resected pancreatic tissue (500 mm^3) was attained fresh from the operating room at the University of Texas Medical Branch. The tissue was minced and plated on a collagen-coated flask (15 μg/mL, Invitrogen) with DMEM (VWR; Radnor, Pa.) supplemented with penicillin 200 U/mL, streptomycin 200 μg/mL, amphotericin B 0.25 μg/mL and gentimicin 50 μg/mL (Invitrogen, Carlsbad Calif.), 10% fetal bovine serum (Lonza, Walkersville, Md.), 1% insulin-transferrin, selenium-ethanolamine (Gibco, Grand Island, N.Y.), and 1% non-essential amino acids (Sigma-Aldrich, St. Louis, Mo.). The human PSC were isolated by the outgrowth method.^41-43 The purity of PSC culture was confirmed by immunohistochemical staining for vimentin, α-smooth muscle actin, glial fibrillar acidic protein, or Oil red O staining. Primary PSC were transformed and immortalized for use in experiments using lentiviral vectors containing SV40 Large T antigen and human telomerase (plasmid #12245 and 12246; Addgene, Cambridge, Mass.). Cultures were maintained in DMEM with 10% FBS, at 37° C. in a humidified 95% O2/5% CO2 atmosphere.
Cell proliferation assay. Transformed PSC (3×10^3) were plated in 96-well plates, in sextuplicate. […] AlamarBlue reagent (10% sample volume, DAL1025) was added to each well per Invitrogen's protocol. Fluorescence was recorded using excitation/emission wavelengths of 544/590 nm and the SpectraMax M2 Microplate Reader (Molecular Devices, Sunnyvale Calif.).
Statistical analysis. Dose-response curves were generated by plotting fluorescence or absorbance versus log (compound concentration). A best-fit curve was created using nonlinear regression, and the IC50 or EC50 determined from the graph (GraphPad Prism 5; GraphPad Software Inc., La Jolla, Calif.). To analyze continuos variables, unpaired student t-tests and one-way ANOVA with Tukey-Kramer multiple comparisons post-test (GraphPad Prism 5). Significance was set at p<0.05.

[3] = Aqueous solubility by HPLC analysis method; assay type: physicochemical; conditions: in the form of HCl salt

SMILES	melting point [°C]	activity at 100 µM [1] [%]	Inhibitory Effect (%) on PSC proliferation [2] [%]	inhibition at 5 µM [2] [%]	inhibition at 10 µM [2] [%]	inhibition at 20 µM [2] [%]	Antiproliferative effect on PSC, result in words [2]	Aqueous solubility compared with apigenin, result in words [3]	Aqueous solubility, saturated concentration [3] [mg/mL]
COc1cc(OC)c2c(=O)cc(-c3ccc(OCCN4CCCCC4)cc3)oc2c1 [Compound 14, 5,7-Dimethoxy-2-(4-(2-piperidin-1-yl-ethoxy)phenyl)-chromen-4-one]	79 to 80	129	64	45	64	97	potent antiproliferative effects	significantly improved solubility	17.4
COc1cc(OC)c2c(=O)cc(-c3ccc(OCCN4CCCC4)cc3)oc2c1 [Compound 16, 5,7-Dimethoxy-2-(4-(2-pyrrolidin-1-yl-ethoxy)phenyl)-chromen-4-one]	114 to 115	131	66	48	66	98	potent antiproliferative effects	significantly improved solubility	13.7
COc1cc(OC)c2c(=O)cc(-c3ccc(OCC(O)CO)cc3)oc2c1 (centres unmarked) [Compound 28, 2-(4-(2,3-Dihydroxypropoxy)phenyl)-5,7-dimethoxy-chromen-4-one]	203 to 204	104			11	16	dramatic loss of activities		
COc1cc(OC)c2c(=O)cc(-c3ccc(-c4ccc(F)nc4)cc3)oc2c1 [Compound 33, 2-(4-(6-Fluoropyridin-3-yl)phenyl)-5,7-dimethoxy-chromen-4-one]	209 to 210	107			6	19	substantial loss of the activity		
COc1cc(OC)c2c(=O)cc(-c3ccc(NCCN(C)C)cc3)oc2c1 [Compound 36, 2-(4-(2-Dimethylaminoethylamino)phenyl)-5,7-dimethoxy-chromen-4-one]	159 to 160	112		30	60	84			
COc1cc(OC)c2c(=O)cc(-c3ccc(NCCN4CCCC4)cc3)oc2c1 [Compound 37]	148 to 149	109		21	51	80			
COc1cc(O)c2c(=O)cc(-c3ccc(OCCN4CCCC4)cc3)oc2c1 [Compound 38]	127 to 129	109			39	99			
O=c1cc(-c2ccc(OCCN3CCCC3)cc2)oc2cc(O)cc(O)c12 [Compound 39]	228 to 229	99.6		2	71	90			
